Entries after “also recorded” stand apart in the source; their conditions may differ.
Legend:
SALL4 ZNF1-2 = biological target: T1, SALL4 ZNF1-2 (Homo sapiens, UniProt Q96SW2+Q9UJQ4); test: Cellular degradation assay, eGFP-SALL4 ZnF1-2 fusion with mCherry reporter in Flp-In 293 cells; format: cell-based; conditions: 5 h incubation, n=1
T1 construct: IKZF1Δ, IKZF2Δ, GSPT1 and SALL4 ZnF1-2 were subcloned; expressed in transfected cells; host or cells: Flp-In 293
Outline: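 Flp-In 293 cells stably expressing eGFP-SALL4 ZnF1-2 fusion plus mCherry reporter were treated with compound titrations (0.5% DMSO) for 5 hours. Imaging at 488/561 nm gave, per well, the fraction of GFP-positive among mCherry-positive cells.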

GSPT1 [1] = biological target: T2, GSPT1 (Homo sapiens, UniProt P15170+Q96SW2); test: Cellular degradation assay, eGFP-GSPT1 fusion with mCherry reporter in Flp-In 293 cells; format: cell-based; parameters: expressed in transfected cells; host or cells: Flp-In 293; conditions: for GSPT1 GFP/RFP Relative Abundance: 5 h incubation, n=1
T2 sequence (P15170 whole entry, the tested form may be a part): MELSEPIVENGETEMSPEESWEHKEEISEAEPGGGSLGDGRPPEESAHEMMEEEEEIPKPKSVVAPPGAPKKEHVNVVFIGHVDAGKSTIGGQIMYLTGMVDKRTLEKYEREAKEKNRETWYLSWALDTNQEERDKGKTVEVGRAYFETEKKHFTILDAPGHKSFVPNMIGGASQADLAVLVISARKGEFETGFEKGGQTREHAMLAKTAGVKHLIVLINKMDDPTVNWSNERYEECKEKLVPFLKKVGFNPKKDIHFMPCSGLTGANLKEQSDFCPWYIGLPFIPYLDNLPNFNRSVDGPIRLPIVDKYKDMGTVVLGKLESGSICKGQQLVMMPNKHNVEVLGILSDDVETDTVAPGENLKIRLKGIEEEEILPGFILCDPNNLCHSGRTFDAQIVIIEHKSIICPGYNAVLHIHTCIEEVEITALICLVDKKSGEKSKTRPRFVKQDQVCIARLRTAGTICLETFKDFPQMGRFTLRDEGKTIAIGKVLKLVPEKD
T2 sequence (Q96SW2 whole entry, the tested form may be a part): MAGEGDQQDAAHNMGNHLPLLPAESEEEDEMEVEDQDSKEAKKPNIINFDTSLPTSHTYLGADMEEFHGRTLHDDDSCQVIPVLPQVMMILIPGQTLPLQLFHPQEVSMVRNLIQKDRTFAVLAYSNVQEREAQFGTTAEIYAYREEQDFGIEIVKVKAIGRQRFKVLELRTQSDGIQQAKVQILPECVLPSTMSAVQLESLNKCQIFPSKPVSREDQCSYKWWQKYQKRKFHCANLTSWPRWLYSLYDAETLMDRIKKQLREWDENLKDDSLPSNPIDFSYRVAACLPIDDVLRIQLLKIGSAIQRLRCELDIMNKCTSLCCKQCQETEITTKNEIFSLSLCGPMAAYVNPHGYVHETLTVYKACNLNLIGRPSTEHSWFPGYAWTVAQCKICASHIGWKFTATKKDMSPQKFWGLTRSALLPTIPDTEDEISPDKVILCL
T2 sequence (Q16531 whole entry partner, the tested form may be a part): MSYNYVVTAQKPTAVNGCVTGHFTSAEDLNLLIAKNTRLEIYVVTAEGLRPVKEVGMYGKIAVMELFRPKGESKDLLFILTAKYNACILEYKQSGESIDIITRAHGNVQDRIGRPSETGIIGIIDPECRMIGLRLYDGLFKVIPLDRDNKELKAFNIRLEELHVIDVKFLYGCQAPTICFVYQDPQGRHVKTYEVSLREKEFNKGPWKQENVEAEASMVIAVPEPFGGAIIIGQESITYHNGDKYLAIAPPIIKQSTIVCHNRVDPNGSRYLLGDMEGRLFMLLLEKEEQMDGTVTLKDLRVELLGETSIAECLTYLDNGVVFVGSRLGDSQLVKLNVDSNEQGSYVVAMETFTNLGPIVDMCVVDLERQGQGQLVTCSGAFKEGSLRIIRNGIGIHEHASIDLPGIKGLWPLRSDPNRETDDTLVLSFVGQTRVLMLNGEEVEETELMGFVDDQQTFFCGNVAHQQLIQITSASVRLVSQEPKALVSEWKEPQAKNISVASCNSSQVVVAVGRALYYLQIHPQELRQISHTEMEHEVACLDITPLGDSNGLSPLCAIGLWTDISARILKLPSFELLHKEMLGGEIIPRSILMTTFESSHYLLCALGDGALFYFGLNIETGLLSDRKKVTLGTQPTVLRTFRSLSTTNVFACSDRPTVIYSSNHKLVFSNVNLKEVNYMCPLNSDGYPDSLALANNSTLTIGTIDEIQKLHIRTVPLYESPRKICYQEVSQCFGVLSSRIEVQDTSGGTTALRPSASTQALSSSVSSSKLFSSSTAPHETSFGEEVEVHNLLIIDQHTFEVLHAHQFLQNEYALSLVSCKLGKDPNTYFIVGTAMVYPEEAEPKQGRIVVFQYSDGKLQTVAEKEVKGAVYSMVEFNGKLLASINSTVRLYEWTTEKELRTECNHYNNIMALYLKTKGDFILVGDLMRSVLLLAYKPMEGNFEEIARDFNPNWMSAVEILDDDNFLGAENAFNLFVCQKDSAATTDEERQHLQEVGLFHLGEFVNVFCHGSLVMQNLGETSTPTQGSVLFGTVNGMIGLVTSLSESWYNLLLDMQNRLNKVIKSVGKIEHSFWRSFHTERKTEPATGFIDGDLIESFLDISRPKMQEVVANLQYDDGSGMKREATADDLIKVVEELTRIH
Outline: (§1)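 Flp-In 293 cells stably expressing eGFP-tagged degron fusions with P2A-mCherry reporter were treated with compound titrations (0.5% DMSO) for 5 hours. Imaging quantified GFP-positive/mCherry-positive cell fraction per well; DC50 at 5 h from nonlinear variable-slope fit.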

IKZF2 = test: Cellular degradation assay, eGFP-IKZF2Δ fusion with mCherry reporter in Flp-In 293 cells; format: cell-based; conditions: for IKZF2 GFP/RFP Relative Abundance: 5 h incubation, n=1
Outline: as §1

CRBN and Helios (IKZF2) = biological target: T3, CRBN and Helios (IKZF2) (Homo sapiens, UniProt Q96SW2+Q9UKS7); test: TR-FRET dimerization assay (CRBN-IKZF2 ternary complex formation); format: binding; conditions: for TR-FRET signal (520/490 ratio), CRBN-Helios dimerization, in words: FIG. 1B, 2A, 5; for TR-FRET-IKZF2 (Normalized to CC-885): n=1
T3 construct: His (N); Strep (N)
Outline: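 BODIPY-labeled DDB1ΔB-CRBN and in vitro biotinylated IKZF2 were treated with increasing compound concentrations plus tracer Terbium-Streptavidin and incubated 15 min at rt. Recruitment was quantified as the 520/490 nm TR-FRET ratio; values are single measurements (n=1), each averaged from at least three technical replicates.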

Helios [2] = biological target: T4, Helios (Homo sapiens, UniProt Q96SW2+Q9UKS7); test: Immunoblot for Helios in Jurkat cells; format: cell-based; conditions: for Helios degradation on co-treatment with proteasome or NAE inhibitor: 1 μM compound with 1 μM bortezomib, MLN4924 or carfilzomib, 4 h; for Helios degradation (immunoblot): wildtype or Crbn−/− Jurkat cells, 4 h treatment
T4 construct: endogenous in cells; host or cells: Jurkat
Method: (§2) A focused library of imide analogs was synthesized and assessed for their ability to induce dimerization between CRBN and Helios in a time-resolved fluorescence energy transfer (TR-FRET) assay (FIG. 1A).
(§3) Cells were lysed in M-PER buffer (Thermo Scientific) containing protease/phosphatase inhibitor cocktail (Roche). Protein concentration was measured using a BCA assay (Pierce™) Equivalent amounts of each sample were loaded on 4-12% Bis-Tris gels (Invitrogen™) transferred to nitrocellulose membranes, and immunoblotted with the indicated antibodies. IRDye®800-labeled goat anti-rabbit IgG and IRDye®680-labeled goat anti-mouse IgG (LI-COR®) secondary antibodies were purchased from LI-COR®, and membranes were detected on an Odyssey® detection system (LI-COR® Biosciences).
as §3, with “Odyssey” for “Odyssey®”

Ikaros [3] = biological target: T5, Ikaros (Homo sapiens, UniProt Q13422+Q96SW2); test: Immunoblot for Ikaros in Jurkat cells; format: cell-based; conditions: for Ikaros degradation (immunoblot): 4 h treatment
T5 construct: endogenous in cells; host or cells: Jurkat
T5 sequence (Q13422 whole entry): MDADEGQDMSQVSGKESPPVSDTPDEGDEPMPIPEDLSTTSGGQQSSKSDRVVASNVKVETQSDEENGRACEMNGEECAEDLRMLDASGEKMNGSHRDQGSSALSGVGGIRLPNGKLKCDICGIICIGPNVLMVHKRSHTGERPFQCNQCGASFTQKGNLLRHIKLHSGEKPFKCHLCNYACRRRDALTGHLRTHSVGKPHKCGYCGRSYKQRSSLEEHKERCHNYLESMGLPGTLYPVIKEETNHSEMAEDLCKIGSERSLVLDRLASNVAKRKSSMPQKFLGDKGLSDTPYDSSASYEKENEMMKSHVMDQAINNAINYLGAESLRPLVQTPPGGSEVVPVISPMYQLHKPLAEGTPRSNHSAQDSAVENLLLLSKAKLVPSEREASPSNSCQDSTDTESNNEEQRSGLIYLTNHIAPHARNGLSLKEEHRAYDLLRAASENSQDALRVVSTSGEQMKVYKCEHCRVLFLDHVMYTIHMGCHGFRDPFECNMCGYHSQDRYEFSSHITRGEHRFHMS
T5 sequence (Q96SW2 whole entry): as the sequence (Q96SW2 whole entry, the tested form may be a part) above
T5 sequence (Q16531 whole entry partner): as the sequence (Q16531 whole entry partner, the tested form may be a part) above
Method: as §2, §3

IKZF1 = biological target: T6, IKZF1 (Homo sapiens, UniProt Q13422); test: Cellular degradation assay, eGFP-IKZF1Δ fusion with mCherry reporter in Flp-In 293 cells; format: cell-based; conditions: for IKZF1 GFP/RFP Relative Abundance: 5 h incubation, n=1
T6 construct: expressed in transfected cells; host or cells: Flp-In 293
Outline: as §1

Helios [4] = biological target: T7, Helios (Mus musculus, UniProt P81183+Q8C7D2, I391V); test: Helios levels in isolated Crbn^I391V/I391V Tregs; format: cell-based, murine; conditions: 2 μM, IL-2 and IL-4, 4 days
T7 construct: from tissue; host or cells: spleen (T cell subpopulations / CD4+ CD25+ Tregs) of Crbn I391V/I391V mice
Method: (§4) FIG. 9A-FIG. 9C are a series of graphs showing that Helios degradation in Tregs permits IFNγ production. Isolated Crbn^I391V/I391V Tregs were treated with 2 μM of compound 69, 5 ng/mL IL-2, and 20 ng/mL IL-4 for 4 days and then restimulated with PMA/ionomycin for 5 h. […] FIG. 9B is a bar graph showing the percent increase of IFNγ with treatment of compound 69.
(§5) Foxp3+ regulatory T cells were isolated by sorting for CD4+ CD25+ T cells from Crbn^I391V/I391V spleens, treated with 2 μM of compound 69, 5 ng/mL IL-2, and 20 ng/mL IL4 for 4 days and then restimulated with PMA/ionomycin for 5 h. Cells were then fixed/permeabilized and stained with fluorochrome-coupled antibodies. […] FIG. 9B is a bar graph showing the percent increase of IFNγ with treatment of compound 69.

GSPT1 [5] = biological target: T2, GSPT1; test: Immunoblot for GSPT1 in Jurkat cells; format: cell-based; parameters: expressed in transfected cells; conditions: wildtype or Crbn−/− Jurkat cells, 4 h treatment
Method: as §2, §3

Ikaros [6] = biological target: T8, Ikaros (Mus musculus, UniProt Q03267+Q8C7D2, I391V); test: Flow cytometry of Ikaros in splenic T cell subpopulations from Crbn^I391V/I391V mice; format: cell-based, murine; conditions: 1 μM, 16 h
T8 construct: from tissue; host or cells: spleen (T cell subpopulations) of Crbn I391V/I391V mice
Method: (§6) FIG. 8A-FIG. 8B are a series of graphs depicting levels of Ikaros and Helios that were assessed by flow cytometry. […] FIG. 8B depicts levels of Ikaros and Helios of splenic T cell subpopulations from Crbn^I391V/I391V mice that were treated with 1 μM of indicated compounds for 16 h.
(§7) Splenocytes were fixed/permeabilized and stained with fluorochrome-coupled antibodies. FACS plots of murine splenocytes were stained for TCRβ, CD4, CD8, and FoxP3 (FIG. 8A).

Helios [7] = biological target: T7, Helios; test: Flow cytometry of Helios in splenic T cell subpopulations from Crbn^I391V/I391V mice; format: cell-based, murine; conditions: 1 μM, 16 h
Method: as §6, §7

[8] = test system: Foxp3+ regulatory T cells; test: IFNγ production of isolated Crbn^I391V/I391V Tregs after PMA/ionomycin restimulation; format: cell-based, murine; conditions: 2 μM, 4 days, restimulated with PMA/ionomycin 5 h
Method: as §4, §5

Ikzf2 mRNA = test: qPCR for Ikzf2 mRNA in Jurkat cells; format: cell-based; conditions: 4 h, n=3
Method: FIG. 2A is a graph of 520/490 TR-FRET ratios. […] FIG. 2C is immunoblots from wildtype or Crbn−/− Jurkat cells treated with compound 54 for 4 h. FIG. 2D is immunoblots from Jurkat cells co-treated with compound 54 (1 μM) and bortezomib (bort.; 1 μM) or MLN4924 (1 μM) for 4 h. FIG. 2E is a bar graph showing quantitative polymerase chain reaction (qPCR) for Ikzf2 messenger ribonucleic acid (mRNA) from Jurkat cells treated for 4 h (n=3; N.S.=not significant).

Helios [9] = biological target: T9, Helios (Mus musculus, UniProt P81183); test: Immunoblot for Helios in Hoxb8-immortalized myeloid progenitor cells (wildtype or Crbn^I391V/I391V); format: cell-based, murine; conditions: Hoxb8 myeloid progenitor cells from wildtype or Crbn^I391V/I391V mice, 18 h
T9 construct: endogenous in cells; host or cells: Hoxb8-immortalized myeloid progenitor cells from mice
Method: IKZF1/3 are not susceptible to IMiD-mediated degradation in murine cells, and this can be rescued by mutating a single amino acid on the surface of murine CRBN (Ile 391) to the analogous human residue (Val). To determine whether Helios follows a similar pattern, Hoxb8-immortalized myeloid progenitor cells derived from wildtype or Crbn^I391V/I391V mice were treated with compound 54. […] Thus, Helios is degradable in murine cells only if they express ‘humanized’ CRBN.

[10] = compound concentration 2.00E−05
[11] = compound concentration 2.00E−06
[12] = compound concentration 2.00E−07
[13] = compound concentration 6.6667E−05
[14] = compound concentration 6.6667E−06
[15] = compound concentration 6.6667E−07 (667 nM)
[16] = half degradation at 5 h (DC50,5 h), triplicate, 11 point dose response

Row | SMILES | SALL4 ZNF1-2 GFP/RFP Relative Abundance (SALL4 ZNF1-2; [10]) | SALL4 ZNF1-2 GFP/RFP Relative Abundance (SALL4 ZNF1-2; [11]) | SALL4 ZNF1-2 GFP/RFP Relative Abundance (SALL4 ZNF1-2; [12]) | GSPT1 GFP/RFP Relative Abundance (GSPT1 [1]; [10]) | GSPT1 GFP/RFP Relative Abundance (GSPT1 [1]; [11]) | GSPT1 GFP/RFP Relative Abundance (GSPT1 [1]; [12]) | IKZF2 GFP/RFP Relative Abundance (IKZF2; [10]) | IKZF2 GFP/RFP Relative Abundance (IKZF2; [11]) | IKZF2 GFP/RFP Relative Abundance (IKZF2; [12]) | TR-FRET signal (520/490 ratio), CRBN-Helios dimerization, in words (CRBN and Helios (IKZF2)) | TR-FRET-IKZF2 (Normalized to CC-885) (CRBN and Helios (IKZF2); [13]) | TR-FRET-IKZF2 (Normalized to CC-885) (CRBN and Helios (IKZF2); [14]) | TR-FRET-IKZF2 (Normalized to CC-885) (CRBN and Helios (IKZF2); [15]) | IKZF1 GFP/RFP Relative Abundance (IKZF1; [10]) | IKZF1 GFP/RFP Relative Abundance (IKZF1; [11]) | IKZF1 GFP/RFP Relative Abundance (IKZF1; [12]) | Helios degradation on co-treatment with proteasome or NAE inhibitor (Helios [2]; Jurkat cells) | Helios degradation (immunoblot) (Helios [2]) | Ikaros degradation (immunoblot) (Ikaros [3]) | further results
1 | Cc1ccc(NC(=O)NCc2cccc(NC3=CC(=O)N(C4CCC(=O)NC4=O)C3=O)c2)cc1Cl (stereo not drawn) [Compound 44, 1-(3-chloro-4-methylphenyl)-3-(3-((1-(2,6-dioxopiperidin-3-yl)-2,5-dioxo-2,5-dihydro-1H-pyrrol-3-yl)amino)benzyl)urea] | 0.888 | 0.742 | 0.702 | 0.399 | 0.504 | 0.744 | 0.042 | 0.079 | 0.085 | increased activity over CC-885 at all tested concentrations | 1.223 | 1.191 | 1.119 | 0.059 | 0.071 | 0.072 |  |  |  | Helios loss (immunoblot) (Helios [2]; Jurkat cells, 24 h treatment): induced loss of both Ikaros and Helios; also recorded: required 24 h treatment; Ikaros loss (immunoblot) (Ikaros [3]; 24 h treatment): induced loss of both Ikaros and Helios
2 | Cc1ccc(NC(=O)NC(C)(C)c2cccc(NC3=CC(=O)N(C4CCC(=O)NC4=O)C3=O)c2)cc1Cl (stereo not drawn) [Compound 69, 1-(3-chloro-4-methylphenyl)-3-(2-(3-((1-(2,6-dioxopiperidin-3-yl)-2,5-dioxo-2,5-dihydro-1H-pyrrol-3-yl)amino)phenyl)propan-2-yl)urea] |  |  |  |  |  |  | 0.032 | 0.013 | 0.028 | induced higher TR-FRET signals than CC-885 | 2.037 | 1.970 | 1.737 | 0.086 | 0.140 | 0.132 | Helios degradation is dependent on the proteasome | induced CRBN-dependent Helios degradation | did not affect the stability of GSPT1 or Ikaros | Helios degradation in isolated Tregs (Helios [4]): able to induce degradation of Helios in Tregs; DC50 (GSPT1 [1]; [16]): > 1000 nM; GSPT1 stability (immunoblot) (GSPT1 [5]): did not affect the stability of GSPT1 or Ikaros; DC50 (IKZF2; [16]): 3.6 nM; Ikaros degradation in regulatory T cells (flow cytometry) (Ikaros [6]): not Ikaros; Helios degradation in regulatory T cells (flow cytometry) (Helios [7]): capable of inducing degradation of Helios; IFNγ production [8]: increased production of IFNγ upon restimulation; DC50 (IKZF1; [16]): 14 nM
3 | Cc1ccc(NC(=O)NC(C)c2cccc(NC3=CC(=O)N(C4CCC(=O)NC4=O)C3=O)c2)cc1Cl (stereo not drawn) [Compound 54, 1-(3-chloro-4-methylphenyl)-3-(1-(3-((1-(2,6-dioxopiperidin-3-yl)-2,5-dioxo-2,5-dihydro-1H-pyrrol-3-yl)amino)phenyl)ethyl)urea] |  |  |  | 0.420 | 0.638 | 0.567 | 0.030 | 0.024 | 0.027 | scored even higher than compound 44 | 1.729 | 1.629 | 1.382 | 0.119 | 0.106 | 0.102 | both prevented Helios degradation | induced CRBN-dependent Helios degradation | lost some degradation activity against Ikaros in comparison to compound 44 | IKZF2 mRNA levels (qPCR) (Ikzf2 mRNA): did not affect mRNA levels of IKZF2; Helios degradation in murine cells (Helios [9]): Helios was only degraded in Crbn^I391V/I391V cells
4 | O=C1CCC(N2C(=O)C=C(Nc3ccc4cn[nH]c4c3)C2=O)C(=O)N1 (stereo not drawn) [Compound 32, 3-(3-((1H-indazol-6-yl)amino)-2,5-dioxo-2,5-dihydro-1H-pyrrol-1-yl)piperidine-2,6-dione] | 1.008 | 0.889 | 0.901 | 0.646 | 0.855 | 0.970 | 1.008 | 0.941 | 0.958 |  | 0.274 | 0.213 | 0.210 | 0.748 | 0.795 | 0.832 |  |  |  | 
